Measured values reported in patent publication US7109193B2, “Tricyclic diazepines tocolytic oxytocin receptor antagonists” (Wyeth, priority 2001, dated 2006).

Tests used:
[1] = biological target: T1, human vasopressin V1a receptor subtype (Homo sapiens, UniProt P37288); test: Vasopressin binding in Chinese Hamster Ovary cell membranes expressing human vasopressin V1a subtype receptors; settings: 100 nM, CHO cell membranes, [3H]Manning ligand, values without parentheses
T1 construct: host or cells: CHO cells (pZeoSV vector for the Thibonnier line)
T1 sequence (P37288 whole entry): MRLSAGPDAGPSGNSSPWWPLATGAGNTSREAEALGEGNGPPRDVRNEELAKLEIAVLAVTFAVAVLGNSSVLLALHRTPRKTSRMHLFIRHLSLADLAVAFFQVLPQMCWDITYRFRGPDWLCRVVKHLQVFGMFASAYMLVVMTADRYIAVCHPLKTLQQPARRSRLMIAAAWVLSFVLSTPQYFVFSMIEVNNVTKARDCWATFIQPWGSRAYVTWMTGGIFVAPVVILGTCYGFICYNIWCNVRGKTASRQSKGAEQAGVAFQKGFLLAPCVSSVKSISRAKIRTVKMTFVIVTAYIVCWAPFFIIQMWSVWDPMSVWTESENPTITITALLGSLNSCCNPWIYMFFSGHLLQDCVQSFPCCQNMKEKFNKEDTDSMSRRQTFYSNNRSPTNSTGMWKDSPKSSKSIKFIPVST
In short: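 Displacement of [3H]Manning ligand (8 nM working solution) from human V1a receptors in CHO cell membranes, 25–50 μg protein per well. Incubation ran 60 min at room temperature in 50 mM Tris-HCl pH 7.4 with protease inhibitors, followed by filtration and scintillation counting. Results are given as IC50 or percent inhibition.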

| inhibition at 0.1 µM [1] [%] | melting point [°C] | SMILES |
| --- | --- | --- |
| 8 | 197 to 199 | Cc1cc(C(=O)N2Cc3cccn3Cc3ccccc32)cc(C)c1-n1c(C)ccc1C [Example 30, [4-(2,5-Dimethyl-1H-pyrrol-1-yl)-3,5-dimethyl-phenyl][10,11-dihydro-5H-pyrrolo[2,1-c][1,4]benzodiazepin-10-yl]methanone] |
| -11 | 213 to 215 | CCOc1ccccc1-c1cc(OC)c(C(=O)N2Cc3cccn3Cc3ccccc32)cc1Cl [Example 17, 10-{[6-Chloro-3-methoxy-2′-ethoxy[1,1′-biphenyl]-4-yl]carbonyl}-10,11-dihydro-5H-pyrrolo[2,1-c][1,4]benzodiazepine] |
| 30 | 208 to 210 | Cc1cc(C(=O)N2Cc3cccn3Cc3ccccc32)ccc1-c1ccncc1 [Example 31, [3-Methyl-4-(4-pyridinyl)phenyl]-[10,11-dihydro-5H-pyrrolo[2,1-c][1,4]benzodiazepin-10-yl]methanone] |
| 74 | 171 to 174 | O=C(c1ccc(-c2ccccc2)nc1)N1Cc2cccn2Cc2ccccc21 [Example 29, (6-Phenyl-pyridin-3-yl)-[10,11-dihydro-5H-pyrrolo[2,1-c][1,4]benzodiazepin-10-yl]methanone] |
| 7 | – | COc1ccccc1-c1ccc(C(=O)N2Cc3ccc(C(=O)N4CCN(CCCN(C)C)CC4)n3Cc3ccccc32)cc1OC [Example 254, {10-[(2,2′-Dimethoxy[1,1′-biphenyl]-4-yl)carbonyl]-10,11-dihydro-5H-pyrrolo[2,1-c][1,4]benzodiazepin-3-yl}{4-[3-(dimethylamino)propyl]-1-piperazinyl}methanone] |
| 0 | – | COc1cccc(-c2cc(OC)c(C(=O)N3Cc4ccc(C(=O)N[C@@H](Cc5c[nH]cn5)C(N)=O)n4Cc4ccccc43)cc2Cl)c1 [Example 287, N-[(1S)-2-Amino-1-(1H-imidazol-4-ylmethyl)-2-oxoethyl]-10-[(6-chloro-3,3′-dimethoxy[1,1′-biphenyl]-4-yl)carbonyl]-10,11-dihydro-5H-pyrrolo[2,1-c][1,4]benzodiazepine-3-carboxamide] |
| 38 | – | COc1cc(C(=O)N2Cc3ccc(C(=O)N4CCN(C)CC4)n3Cc3ccccc32)ccc1-c1ccccc1C [Example 53, {10-[(2-Methoxy-2′-methyl[1,1′-biphenyl]-4-yl)carbonyl]-10,11-dihydro-5H-pyrrolo[2,1-c][1,4]benzodiazepin-3-yl}(4-methyl-1-piperazinyl)methanone] |
| 4 | – | COc1cc(C(=O)N2Cc3ccc(C(=O)N4CCN(CCCN(C)C)CC4)n3Cc3ccccc32)ccc1-n1c(C)ccc1C [Example 320, {4-[3-(Dimethylamino)propyl]-1-piperazinyl}{10-[4-(2,5-dimethyl-1H-pyrrol-1-yl)-3-methoxybenzoyl]-10,11-dihydro-5H-pyrrolo[2,1-c][1,4]benzodiazepin-3-yl}methanone] |
